The values that follow come from paper PMC7914304 (Bioorganic & medicinal chemistry, 2020).

A short description of data set [1]: logP by HPLC method. Format: physicochemical.
The conditions of data set [2]: mice, oral, cited from earlier work.

Where two headings read alike, the source gives them in different places.

In general, logP refers to a log measure of how a compound divides between an organic and an aqueous phase. Low readings indicate a more hydrophilic compound, high ones a more lipophilic compound. A word on the AUC: it is the area under the concentration-time curve, a measure of exposure. In general, Cmax refers to the highest concentration seen after dosing. What is called Tmax is the time from dosing to the highest level. `CC[C@H](C)C(=O)N1CCC(NC(=O)Nc2ccc(OC(F)(F)F)cc2)CC1` [compound 3]: in data set [1], the logP was 3.97. In data set [2] (0.3 mg/kg), the AUC is 2.53 µM·h, the Cmax was 195 nM, the T1/2 is listed as 7.7 h and the Tmax was 4 h.
Take `CC(=O)N1CCC(NC(=O)NC23CC4CC(CC(C4)C2)C3)CC1` [inhibitor 1]: in data set [2] (0.5 mg/kg), the AUC is 0.183 µM·h, the Cmax is 30 nM, the T1/2 is 3 h and the Tmax is recorded as 1 h.
